Each structure is given as a SMILES string.

These results are taken from US12187742B2 (XRAD Therapeutics, Inc., priority 2018, dated 2025).

One assay deals with ATM (Homo sapiens (Human), UniProt Q13315). Put plainly: ATM in Cell Western Assay (pKAP1 in etoposide-treated MCF-7 cells). The format is cell-based. Conditions: MCF-7 cells, etoposide 100 μM, 1 hr, pKAP1 readout. In a few lines:
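Cells received compounds in a 10-dose, 3-fold series from a 1 μM final top concentration, then 100 μM etoposide, for 1 hr at 37° C. They were then fixed with paraformaldehyde and permeabilized with 0.1% Triton X-100. After immunostaining, plates were scanned on an infrared imager.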

A further assay addresses DNA-PK (Homo sapiens (Human), UniProt P78527). As to the kind of experiment: DNA-PK Enzyme-Linked Immunosorbent Assay (phosphorylation of GST-p53 (1-101) peptide). Conditions: ELISA, ATP 20 μM. The format is biochemical. The method, then:
Assay of Compounds ATM and DNA-PK Inhibition
remove wash solution, turn plate upside down onto a thin paper towel and centrifuge at 1000 rpm for 1 min to absorb all wash buffer. Clean the bottom of plate with moist lint free paper. Scan plate immediately using ODYSSEY CLx (LI-COR) for the best results. DNA-PK Enzyme-Linked Immunosorbent Assay:
On day one, coat 96-well plate (ThermoFisher. Cat #: 442404) with GST-p53 (1-101) peptide (purified by Pharmaron, BCS department) by diluting 3 μg of GST-p53 each well with 0.1 M Na2CO3/NaHCO3, pH 9.6. Incubate the plate overnight at 4° C. The second day, remove coating buffer, wash 2× with PBST (1×PBS containing 0.1% Tween-20). Then add DNA-PK enzyme solution (Invitrogen, #PR9107A; the final DNA-PK concentration is 0.1 μg/mL), series dilution compounds (the final top concentration is 100 nM, 3 fold series dilution, with total 10 doses) and ATP solution (the final ATP concentration is 20 μM) to the 96-well plate. Incubate the plate at 25° C. for 1 hour. Then wash 3× with PBST (1×PBS containing 0.1% Tween-20). Block the plate with PBST+ 1% BSA at 4° C. overnight. The third day, wash 4× with PBST (1×PBS containing 0.1% Tween-20). Then add Phospho-p53 primary antibody (cell signaling Technology, #9286, Phospho-p53 (Ser15) (16G8) Mouse mAb) (1/1000) to each well. Seal with plate and incubate the plate for 1 h at 37° C. Wash 4× with PBST (1×PBS containing 0.1% Tween-20), add 100 μL of HRP-linked secondary antibody (Cell signaling Technology, #7076, Anti-mouse IgG, HRP-linked Antibody) (1/1000) to each well. Seal with tape and incubate the plate for 30 min at 37° C. Wash 4× with PBST (1×PBS containing 0.1% Tween-20), add 100 μL of TMB (Cell signaling Technology, #7004) substrate to each well. Seal with tape and incubate the plate for 10 min at 37° C. Then add 100 μL of Stop solution (Cell signaling Technology, #7002) to each well. Read the plate at 450 nm to detect absorption.
(In general: An ELISA detects its analyte on a solid surface through an enzyme-linked reagent.)

ATM, sequence (Q13315 whole entry): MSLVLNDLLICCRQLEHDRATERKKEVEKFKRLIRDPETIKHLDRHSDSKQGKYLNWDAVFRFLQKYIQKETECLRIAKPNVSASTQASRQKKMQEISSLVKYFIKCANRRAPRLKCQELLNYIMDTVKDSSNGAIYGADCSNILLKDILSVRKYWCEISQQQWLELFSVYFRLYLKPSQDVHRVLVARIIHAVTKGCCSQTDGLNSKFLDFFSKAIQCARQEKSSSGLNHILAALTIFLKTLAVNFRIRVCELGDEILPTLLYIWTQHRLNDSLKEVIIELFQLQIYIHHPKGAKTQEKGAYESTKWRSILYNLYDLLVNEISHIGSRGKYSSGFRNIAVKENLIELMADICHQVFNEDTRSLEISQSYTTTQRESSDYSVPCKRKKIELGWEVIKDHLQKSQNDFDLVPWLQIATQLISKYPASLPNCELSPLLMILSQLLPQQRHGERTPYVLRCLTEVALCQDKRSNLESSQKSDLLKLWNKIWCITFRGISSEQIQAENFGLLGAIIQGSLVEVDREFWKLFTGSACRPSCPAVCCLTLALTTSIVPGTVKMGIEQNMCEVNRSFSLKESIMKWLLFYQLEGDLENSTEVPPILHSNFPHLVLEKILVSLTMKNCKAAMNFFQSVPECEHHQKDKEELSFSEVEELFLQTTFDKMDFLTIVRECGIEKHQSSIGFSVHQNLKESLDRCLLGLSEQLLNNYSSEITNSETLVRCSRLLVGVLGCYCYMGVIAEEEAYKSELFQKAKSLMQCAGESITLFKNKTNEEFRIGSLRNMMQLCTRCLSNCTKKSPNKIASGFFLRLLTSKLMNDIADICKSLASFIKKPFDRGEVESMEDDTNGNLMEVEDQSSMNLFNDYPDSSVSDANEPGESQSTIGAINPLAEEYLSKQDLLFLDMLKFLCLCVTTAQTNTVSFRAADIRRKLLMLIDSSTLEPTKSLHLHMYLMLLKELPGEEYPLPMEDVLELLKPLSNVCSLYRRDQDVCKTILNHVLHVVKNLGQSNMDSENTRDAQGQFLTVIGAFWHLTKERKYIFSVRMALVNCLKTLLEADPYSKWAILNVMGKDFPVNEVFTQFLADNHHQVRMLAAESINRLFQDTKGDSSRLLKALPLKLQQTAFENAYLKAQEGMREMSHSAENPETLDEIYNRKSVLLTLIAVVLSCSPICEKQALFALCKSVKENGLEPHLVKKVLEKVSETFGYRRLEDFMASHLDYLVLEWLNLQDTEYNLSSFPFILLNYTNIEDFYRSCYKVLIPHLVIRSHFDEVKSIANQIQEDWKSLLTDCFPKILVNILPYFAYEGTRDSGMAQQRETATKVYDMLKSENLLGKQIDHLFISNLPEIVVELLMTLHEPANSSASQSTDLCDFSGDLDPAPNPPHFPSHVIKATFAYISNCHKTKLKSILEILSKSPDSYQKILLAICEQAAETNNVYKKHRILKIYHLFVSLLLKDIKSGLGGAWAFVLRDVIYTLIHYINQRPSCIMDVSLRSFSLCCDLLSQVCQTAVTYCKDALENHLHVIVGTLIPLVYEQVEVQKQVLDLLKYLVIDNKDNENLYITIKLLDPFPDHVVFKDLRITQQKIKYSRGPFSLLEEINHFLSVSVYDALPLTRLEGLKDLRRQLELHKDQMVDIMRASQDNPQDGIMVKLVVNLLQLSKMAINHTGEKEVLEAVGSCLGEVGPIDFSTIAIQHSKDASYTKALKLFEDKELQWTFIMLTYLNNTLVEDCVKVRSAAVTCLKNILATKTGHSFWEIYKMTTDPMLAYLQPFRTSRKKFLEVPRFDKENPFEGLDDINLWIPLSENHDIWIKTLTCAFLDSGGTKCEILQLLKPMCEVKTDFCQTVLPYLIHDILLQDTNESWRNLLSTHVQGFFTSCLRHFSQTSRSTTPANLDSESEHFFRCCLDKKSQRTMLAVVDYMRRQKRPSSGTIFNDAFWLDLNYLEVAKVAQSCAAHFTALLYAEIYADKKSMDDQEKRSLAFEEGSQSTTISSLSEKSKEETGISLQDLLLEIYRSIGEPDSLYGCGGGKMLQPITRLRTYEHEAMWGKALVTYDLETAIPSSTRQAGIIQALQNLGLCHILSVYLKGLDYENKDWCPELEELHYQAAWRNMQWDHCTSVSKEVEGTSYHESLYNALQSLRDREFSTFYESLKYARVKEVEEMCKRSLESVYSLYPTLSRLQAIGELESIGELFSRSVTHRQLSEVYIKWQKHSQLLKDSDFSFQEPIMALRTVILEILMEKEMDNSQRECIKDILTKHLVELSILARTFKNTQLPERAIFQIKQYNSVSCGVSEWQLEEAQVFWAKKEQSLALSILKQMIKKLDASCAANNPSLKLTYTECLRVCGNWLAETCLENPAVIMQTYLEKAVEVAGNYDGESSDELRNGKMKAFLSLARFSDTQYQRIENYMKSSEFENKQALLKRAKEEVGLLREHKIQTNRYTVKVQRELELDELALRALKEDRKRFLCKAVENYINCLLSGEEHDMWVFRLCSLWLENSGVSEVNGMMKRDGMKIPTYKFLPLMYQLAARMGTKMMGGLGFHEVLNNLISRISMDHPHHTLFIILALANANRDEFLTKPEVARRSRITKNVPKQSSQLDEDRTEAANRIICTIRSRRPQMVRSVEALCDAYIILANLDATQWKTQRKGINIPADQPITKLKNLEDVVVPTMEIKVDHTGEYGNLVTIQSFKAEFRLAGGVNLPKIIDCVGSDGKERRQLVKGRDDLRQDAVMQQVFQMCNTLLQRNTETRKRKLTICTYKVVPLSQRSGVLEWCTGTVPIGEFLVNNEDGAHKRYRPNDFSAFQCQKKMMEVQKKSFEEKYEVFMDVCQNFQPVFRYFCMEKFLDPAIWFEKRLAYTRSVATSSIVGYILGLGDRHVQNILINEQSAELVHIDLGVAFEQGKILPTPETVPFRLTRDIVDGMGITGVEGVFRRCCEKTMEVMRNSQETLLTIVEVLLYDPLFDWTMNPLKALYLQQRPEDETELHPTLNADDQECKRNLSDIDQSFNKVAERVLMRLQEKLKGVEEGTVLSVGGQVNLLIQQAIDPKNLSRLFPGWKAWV

`CN1C(=O)C2(CC2)c2c1cnc1ccc(-c3cnc4ncccc4c3)cc21` [Example 62, 3′-Methyl-8′-(1,8-naphthyridin-3-yl)spiro[cyclopropane-1,1′-pyrrolo[2,3-c]quinolin]-2′(3′-H)-one]: the IC50 against ATM and on DNA-PK was 1 to 100 nM throughout.

On to `CN(C)CCCOc1ccc(-c2ccc3ncc4c(c3c2)C2(CC2)C(=O)N4C)cc1NS(=O)(=O)c1ccccc1` [Example 63, N-(2-(3-(Dimethylamino)propoxy)-5-(3′-methyl-2′-oxo-2′,3′-dihydrospiro[cyclopropane-1,1′-pyrrolo[2,3-c]quinolin]-8′-yl)phenyl)benzenesulfonamide], for which the IC50 (commonly the concentration needed to halve the response being measured) at ATM was 0.5 to 1 nM; against DNA-PK it was 1 to 100 nM.

Take `CN(C)CCCOc1ncc(-c2ccc3ncc4c(c3c2)C2(CC2)C(=O)N4C)cc1NS(C)(=O)=O` [Example 64, N-(2-(3-(Dimethylamino)propoxy)-5-(3′-methyl-2′-oxo-2′,3′-dihydrospiro[cyclopropane-1,1′-pyrrolo[2,3-c]quinolin]-8′-yl)pyridin-3-yl) methanesulfonamide]: the IC50 was 1 to 100 nM against ATM and less than 0.5 nM on DNA-PK.

As to `CN(C)CCCOc1ncc(-c2cc3c4c(cnc3cc2F)N(C)C(=O)C42CC2)cc1NS(=O)(=O)c1ccccc1` [Example 65, N-(2-(3-(Dimethylamino)propoxy)-5-(7′-fluoro-3′-methyl-2′-oxo-2′,3′-dihydrospiro [cyclopropane-1,1′-pyrrolo[2,3-c]quinolin]-8′-yl)pyridin-3-yl) benzenesulfonamide], the half-inhibitory concentration (IC50) on ATM and against DNA-PK was 1 to 100 nM throughout.

As to `CN(C)CCCOc1ncc(-c2cc3c4c(cnc3cc2F)N(C)C(=O)C42CC2)cc1NS(=O)(=O)C1CC1` [Example 66, N-(2-(3-(Dimethylamino)propoxy)-5-(7′-fluoro-3′-methyl-2′-oxo-2′,3′-dihydrospiro[cyclopropane-1,1′-pyrrolo[2,3-c]quinolin]-8′-yl)pyridin-3-yl) cyclopropanesulfonamide], the IC50 at ATM and at DNA-PK was 1 to 100 nM each time.

For the compound `CN1C(=O)C2(CC2)c2c1cnc1ccc(-c3cnc(OCCCN4CCCCC4)c(NS(=O)(=O)c4ccccc4)c3)cc21` [Example 67, N-(5-(3′-Methyl-2′-oxo-2′,3′-dihydrospiro[cyclopropane-1,1′-pyrrolo[2,3-c]quinolin]-8′-yl)-2-(3-(piperidin-1-yl)propoxy)pyridin-3-yl)benzenesulfonamide], the results for the half-inhibitory concentration (IC50) on ATM and against DNA-PK were 0.5 to 1 nM and less than 0.5 nM, respectively.

On to `CN1C(=O)C2(CC2)c2c1cnc1ccc(-c3cnc(OCCCN4CCCCC4)c(NS(=O)(=O)C4CC4)c3)cc21` [Example 68, N-(5-(3′-Methyl-2′-oxo-2′,3′-dibydrospiro[cyclopropane-1,1′-pyrrolo[2,3-c]quinolin]-8′-yl)-2-(3-(piperidin-1-yl)propoxy)pyridin-3-yl)cyclopropanesulfonamide], for which the 50% inhibitory concentration (IC50) against ATM is 1 to 100 nM; on DNA-PK it was less than 0.5 nM.

On to `CN(C)CCCOc1ncc(-c2ccc3ncc4c(c3c2)C2(CC2)C(=O)N4C)cc1NS(=O)(=O)C1CCC1` [Example 69, N-(2-(3-(Dimethylamino)propoxy)-5-(3′-methyl-2′-oxo-2′,3′-dihydrospiro[cyclopropane-1,1′-pyrrolo[2,3-c]quinolin]-8′-yl)pyridin-3-yl)cyclobutanesulfonamide], for which the IC50 against ATM and at DNA-PK was 1 to 100 nM throughout.

Turning to `CN(C)CCCNc1ncc(-c2ccc3ncc4c(c3c2)C2(CC2)C(=O)N4C)cn1` [Example 70, 8′-(2-((3-(Dimethylamino)propyl)amino)pyrimidin-5-yl)-3′-methylspiro[cyclopropane-1,1′-pyrrolo[2,3-c]quinolin]-2′(3′-H)-one], the IC50 against ATM and on DNA-PK was 1 to 100 nM in each case.

For the compound `CN(C)CCCOc1ncc(-c2ccc3ncc4c(c3c2)C2(CC2)C(=O)N4C)cn1` [Example 71, 8′-(2-(3-(Dimethylamino)propoxy)pyrimidin-5-yl)-3′-methylspiro [cyclopropane-1,1′-pyrrolo[2,3-c]quinolin]-2′(3′-H)-one], the IC50 at ATM is 1 to 100 nM; at DNA-PK, more than 100 nM.

`CN(C)CCCOc1ncc(-c2ccc3ncc4c(c3c2)CC2(CCC2)C(=O)N4C)cc1NS(=O)(=O)c1ccccc1` [Example 73, N-(2-(3-(Dimethylamino)propoxy)-5-(4-methyl-3-oxo-3,4-dihydro-1H-spiro[benzo[f][1,7]naphthyridine-2,1′-cyclobutan]-9-yl)pyridin-3-yl)benzenesulfonamide]: the IC50 at ATM and against DNA-PK was 1 to 100 nM in each case.

With `CNCCCCOc1ncc(-c2ccc3ncc4c(c3c2)C2(CC2)C(=O)N4C)cc1NS(=O)(=O)c1ccccc1` [Example 75, N-(5-(3-Methyl-2′-oxo-2′,3′-dihydrospiro [cyclopropane-1,1′-pyrrolo[2,3-c]quinolin]-8′-yl)-2-(4-(methylamino)butoxy)pyridin-3-yl) benzenesulfonamide], the IC50 against ATM and against DNA-PK was 1 to 100 nM in each case.

As for `CN(C)CCCOc1ncc(-c2ccc3ncc4c(c3c2)C2(CC2)C(=O)N4C)cc1NS(=O)(=O)C1COC1` [Example 76], the figures for the concentration for half-maximal inhibition (IC50) against ATM and on DNA-PK were 1 to 100 nM and 0.5 to 1 nM, respectively.

Take `CCCS(=O)(=O)Nc1cc(-c2ccc3ncc4c(c3c2)C2(CC2)C(=O)N4C)cnc1OCCCN(C)C` [Example 77, N-(2-(3-(Dimethylamino)propoxy)-5-(3′-methyl-2′-oxo-2′,3′-dihydrospiro [cyclopropane-1,1′-pyrrolo [2,3-c]quinolin]-8′-yl)pyridin-3-yl)propane-1-sulfonamide]: the concentration for half-maximal inhibition (IC50) against ATM and against DNA-PK was 1 to 100 nM in each case.

For `CN1C(=O)C2(CC2)c2c1cnc1ccc(-c3cnc(OCCC4CCCN4C)c(NS(=O)(=O)c4ccccc4)c3)cc21` (stereo not shown) [Example 78, N-(5-(3′-Methyl-2′-oxo-2′,3′-dihydrospiro[cyclopropane-1,1′-pyrrolo[2,3-c]quinolin]-8′-yl)-2-(2-(1-methylpyrrolidin-2-yl)ethoxy)pyridin-3-yl)benzenesulfonamide], the IC50 at ATM and against DNA-PK was 1 to 100 nM each time.

`CN1C(=O)C2(CC2)c2c1cnc1ccc(-c3cnc(OCCC4CCCN4C)c(NS(=O)(=O)C4CC4)c3)cc21` (stereo not shown) [Example 79, N-(5-(3-Methyl-2′-oxo-2′,3′-dihydrospiro[cyclopropane-1,1′-pyrrolo[2,3-c]quinolin]-8′-yl)-2-(2-(1-methylpyrrolidin-2-yl)ethoxy)pyridin-3-yl)cyclopropanesulfonamide]: the half-maximal inhibitory concentration (IC50) against ATM and against DNA-PK was 1 to 100 nM in each case.

As for `CN1C(=O)C2(CC2)c2c1cnc1ccc(-c3cnc(OCCC4CCCCN4C)c(NS(=O)(=O)C4CC4)c3)cc21` (stereo not shown) [Example 80, N-(5-(3′-Methyl-2′-oxo-2′,3′-dihydrospiro [cyclopropane-1,1′-pyrrolo[2,3-c]quinolin]-8′-yl)-2-(2-(1-methylpiperidin-2-yl)ethoxy)pyridin-3-yl)cyclopropanesulfonamide], the IC50 at ATM and on DNA-PK was 1 to 100 nM in each case.

In the case of `CN1C(=O)C2(CC2)c2c1cnc1ccc(-c3cnc(OCCC4CCCCN4C)c(NS(=O)(=O)c4ccccc4)c3)cc21` (stereo not shown) [Example 81, N-(5-(3′-Methyl-2′-oxo-2′,3′-dihydrospiro [cyclopropane-1,1′-pyrrolo[2,3-c]quinolin]-8′-yl)-2-(2-(1-methylpiperidin-2-yl)ethoxy)pyridin-3-yl)benzenesulfonamide], the IC50 on ATM and against DNA-PK was 1 to 100 nM each time.

Take `COc1cc2ncc3c(c2cc1-c1cnc(OCCCN(C)C)c(NS(=O)(=O)c2ccccc2)c1)C1(CC1)C(=O)N3C` [Example 82, N-(2-(3-(Dimethylamino)propoxy)-5-(7-methoxy-3′-methyl-2′-oxo-2′,3′-dihydrospiro[cyclopropane-1,1′-pyrrolo[2,3-c]quinolin]-8′-yl)pyridin-3-yl) benzenesulfonamide]: the half-inhibitory concentration (IC50) lay within 0.5 to 1 nM against ATM and 1 to 100 nM at DNA-PK.

Regarding `COCCS(=O)(=O)Nc1cc(-c2ccc3ncc4c(c3c2)C2(CC2)C(=O)N4C)cnc1OCCCN(C)C` [Example 83, N-(2-(3-(Dimethylamino)propoxy)-5-(3′-methyl-2′-oxo-2′,3′-dihydrospiro [cyclopropane-1,1′-pyrrolo[2,3-c]quinolin]-8′-yl)pyridin-3-yl)-2-methoxyethane-1-sulfonamide], the IC50 at ATM was less than 0.5 nM; against DNA-PK, 1 to 100 nM.
